From patent US5670331A, “Methods for optimizing fluoropyrimidine cancer therapy” (The University of Alabama Research Foundation, priority 1995, dated 1997) come the findings set out here.

What all share (type): biochemical
Assay [1] has as its system Nucleoside Kinases. The experiment in a line: Pyrimidine nucleoside kinase kinetics, human liver. To be noted: substrate of nucleoside kinases; for Km / Vmax: 37° C. As to the method:
(§1) Enzyme activities were determined isotopically as the products, nucleotides, nucleosides, bases, β-amino-acid, etc. formed from their respective radiolabeled substrates, bases and/or nucleosides. All assays were run at 37° C. under conditions where activity was linear with time and enzyme concentration. […] Reactions were started by the addition of extract and stopped by boiling in a water bath for 2 minutes followed by freezing. Precipitated proteins were removed by centrifugation. A 10-25 μl aliquot of the supernatant fluid was spotted on the appropriate TLC plate and developed in the appropriate solvent system. Separated substrate and product(s) were counted on a TLC Analyzer (Berthold). The amounts of substrate and product(s) were calculated on a percentage basis.
(§2) The assay mixture contained 50 mM Tris-Cl, pH 7.4; 3-60 μM radiolabeled nucleoside ([2-^14 C]thymidine or [2-^14 C]5-fluoro-2'-deoxyuridine); 2.5 mM ATP; 5 mM creatine phosphate; 25 mM NaF; and 50 μl of sonicate to which was added a dash of phosphocreatine kinase in a final volume of 100 μl. After termination of the reaction and centrifugation, the supernatant was spotted on silica gel TLC plates. The plates were developed in a solution of chloroform:methanol:acetic acid (56:24:4, v/v/v) to separate the nucleosides which migrate with the front from the nucleotides which remain at the origin. When assaying patients, the assays are run at about 4.4 μM 5-fluoro-2'-deoxyuridine or about 6.4 μM thymidine.
(§3) The apparent Km and Vmax, as well as the enzyme efficiency values were calculated using computer programs based on Wilkinson-Cleland procedures. Because of the number of patients used, a two-tailed t-test was applied to determine the degree of significance of the difference in enzymatic activities between healthy volunteers, tolerant and intolerant subjects.

Assay [2] relates to Nucleoside Phosphorylase. Nature of the assay: Pyrimidine nucleoside phosphorylase kinetics, human liver. To be noted: substrate of nucleoside phosphorylase; for Km / Vmax: 37° C. As for the experimental part:
as §1
(§4) The assay mixture contained Buffer A, 33-600 μM radiolabeled nucleoside ([2-^14 C]uridine, [2-^14 C]thymidine or [2-^14 C]5-fluoro-2'-deoxyuridine), and 50 μl of sonicate in a final volume of 100 μl. After termination of the reaction and centrifugation, the nucleosides were separated from their respective nucleobases on silica gel TLC plate developed with chloroform:methanol:acetic acid (90:5:5 v/v/v). When assaying patients, the assay is run at about 226 μM 5-fluoro-2'-deoxyuridine, about 169 μM thymidine or about 114 μM uridine.
as §3

The test system of assay [3] is Nucleoside Kinases. The experiment in a line: Pyrimidine nucleoside kinase kinetics, human mononuclear cell sonicate. The following applies: substrate of nucleoside kinases, human mononuclear cells; for Km / Vmax: 37° C. As to the method: (§5) All procedures are carried out at room temperature, using solutions preheated to 37° C. Blood samples were withdrawn in aliquots of 30 ml into 60 ml syringes, containing 5 ml heparin (1,000 Units/ml). Blood and heparin were immediately mixed by inverting the syringes. The mixture was layered onto HISTOPAQUE-1077 (15 ml), in a 50 ml conical centrifuge tube and centrifuged for 30 minutes at 400 ×g. The upper layer was then aspirated with a Pasteur pipet and discarded, while the opaque interface containing the mononuclear cells was aspirated into a fresh conical tube containing 10 ml growth medium (RPMI-1640 medium: 5% FBS:0.050M HEPES, pH 7.4) and mixed by inverting the tubes. The cells were pelleted by centrifugation for 10 minutes at 250 ×g then resuspended into fresh growth medium by gentle aspiration with a Pasteur pipet. After two more washing, the cells were suspended into 10 ml fresh growth media.
(§6) The following buffers were used: Buffer A (20 mM potassium phosphate, pH 8.0) and Buffer B (50 mM Tris-Cl, pH 7.5). Mononuclear cells were washed 2-3 times as described above except that buffer B was substituted for the growth medium. The cells were then sonicated (1:2 v/v) in buffer B using a sonic dismembrator (Fisher model 300). The sonicate was then used as the enzyme source.
as §1, §2, §3

For assay [4], the system named is Nucleoside Phosphorylase. The experiment in a line: Pyrimidine nucleoside phosphorylase kinetics, human mononuclear cell sonicate. The following applies: substrate of nucleoside phosphorylase, human mononuclear cells; for Km / Vmax: 37° C. As for the experimental part: as §5, §6, §1, §4, §3

One may read the Km as the substrate concentration at which the rate is half of its maximum. As usually defined, the Vmax is the rate approached at saturating substrate. As for `Cc1cn([C@H]2C[C@H](O)[C@@H](CO)O2)c(=O)[nH]c1=O` [Thymidine, thymidine], the “Vmax /Km” value in assay [1] is recorded as 4.00 min^-1 × 10^3; in assay [2], 76.15 min^-1 × 10^3; in assay [3], 2.40 min^-1 × 10^3; in assay [4] it was 6.34 min^-1 × 10^3. The Km in assay [1] was found to be 6.41 µM; in assay [2] it was 256 µM; in assay [3], 6.45 µM; in assay [4] it was 168 µM. The Vmax is reported as 0.025 nmol/min/mg in assay [1], 19.471 nmol/min/mg in assay [2], 0.015 nmol/min/mg in assay [3] and 1.068 nmol/min/mg in assay [4].

As to `O=c1ccn([C@@H]2O[C@H](CO)[C@@H](O)[C@H]2O)c(=O)[nH]1` [Uridine, uridine], the “Vmax /Km” value in assay [1] was determined as 0.55 min^-1 × 10^3; in assay [2], 172.00 min^-1 × 10^3; in assay [3], 7.00 min^-1 × 10^3; in assay [4] it was 3.79 min^-1 × 10^3. For the same compound, the Km in assay [1] came to 55.8 µM; in assay [2], 99.1 µM; in assay [3], 40.3 µM; in assay [4], 114 µM. For the same compound, the Vmax in assay [1] was 0.031 nmol/min/mg; in assay [2], 1.703 nmol/min/mg; in assay [3] it was 0.027 nmol/min/mg; in assay [4], 0.431 nmol/min/mg.

Regarding `O=c1[nH]c(=O)n([C@@H]2O[C@H](CO)[C@@H](O)[C@H]2O)cc1F` [5-Fluorouridine], in assay [1], the “Vmax /Km” value was found to be 0.50 min^-1 × 10^3, the Km came out at 25.1 µM and the Vmax is 0.013 nmol/min/mg. For the same compound, in assay [2], the “Vmax /Km” value amounted to 8.62 min^-1 × 10^3, the Km amounted to 286 µM and the Vmax came to 2.470 nmol/min/mg.

Turning to `O=c1[nH]c(=O)n([C@H]2C[C@H](O)[C@@H](CO)O2)cc1F` [5-Fluoro-2'-deoxyuridine, 5-fluoro-2'-deoxyuridine], the “Vmax /Km” value in assay [1] stood at 5.17 min^-1 × 10^3; in assay [2], 111.90 min^-1 × 10^3; in assay [3] it was 2.89 min^-1 × 10^3; in assay [4], 6.22 min^-1 × 10^3. Also, the Km turned out to be 3.1 µM in assay [1], 215 µM in assay [2], 4.39 µM in assay [3] and 226 µM in assay [4]. For the same compound, the Vmax in assay [1] is 0.016 nmol/min/mg; in assay [2] it was 24.041 nmol/min/mg; in assay [3], 0.013 nmol/min/mg; in assay [4] it was 1.404 nmol/min/mg.
